Experimental data: patent publication US20060241097A1, “Pesticidal substituted 1,2,5-thiadiazole derivatives” (FMC CORPORATION, priority 2003, published 2006)
Where a name gives a salt, the structure may show the parent alone. Read-outs that look alike come from different tables or passages of the source. One block for each molecule: values may come before it.

How the values were obtained:
[1] = test system: two-spotted spider mite (Tetranychus urticae); assay: Foliar test against two-spotted spider mite on pinto bean seedlings; type: in vivo; settings: foliar spray, 72 hours
Experimental: Candidate pesticides, i.e., acaricides of the present invention were evaluated on 7-8 day old pinto bean seedlings infested with two-spotted spider mite (Tetranychus urticae) in comparison with the corresponding 1,2,4-thiadiazole derivatives. The test was conducted using the test method set forth below:
One to two hours prior to the test, leaf cuttings containing about 50-75 adult mites were placed on leaves of each of duplicate pinto bean seedlings for each rate of application of candidate acaricide. Solutions of the candidate acaricide were prepared for testing by serial dilution of a standard solution comprised of an appropriate amount of acaricide in a water/acetone solvent, which contained a small amount of a surfactant. Rates of application of candidate acaricide may range from about 1000 ppm, or more, to about 1 ppm, or less, in a rate series of, for example, 1000 ppm, 300 ppm, 100 ppm, 30 ppm, 10 ppm, 3 ppm, and 1 ppm. The solutions containing each rate of application of candidate acaricide were then sprayed to run-off to both the upper and lower portions of the leaves of the mite-infested pinto bean seedlings. Each test of foliar-applied candidate acaricide included appropriate standard acaricide of known acaricidal activity and blank treatments to aid in assessing the acaricidal activity of the candidate acaricide. Upon completion of the spraying with candidate acaricide, the pinto bean seedlings were maintained in a growth chamber for a period of 72 hours. After this time, the seedlings were examined for dead acarids. […] Upon completion of the evaluation of the test, the percent control of the two-spotted spider mite for each rate of application of the candidate acaricide was determined by comparison of the total number of dead and motibund acarids to the total number of acarids in the test.

[2] = test system: cotton aphid (Aphis gossypii); assay: Foliar test against cotton aphid on cotton seedlings; type: in vivo
Experimental: Candidate pesticides, i.e., insecticides of the present invention were evaluated on 7-10 day old cotton seedlings infested with cotton aphid (Aphis gossypii). At least 12 hours prior to the test, leaf cuttings containing about 50 adult aphids were placed on leaves of each of duplicate cotton seedlings for each rate of application of candidate insecticide. Solutions of the candidate insecticide were prepared for testing by serial dilution of a standard solution comprised of an appropriate amount of insecticide in a water/acetone solvent, which contained a small amount of a surfactant. Rates of application of candidate insecticide may range from about 1000 ppm, or more, to about 3 ppm, or less, in a rate series of, for example, 1000 ppm, 100 ppm, 30 ppm, 10 ppm, and 3 ppm. The solutions containing each rate of application of candidate insecticide were then sprayed to run-off to both the upper and lower portions of the leaves of the aphid-infested cotton seedlings. Each test of foliar-applied candidate insecticide included appropriate standard insecticide of known insecticidal activity and blank treatments to aid in assessing the insecticidal activity of the candidate insecticide. Upon completion of the spraying with candidate insecticide, the cotton seedlings were maintained in a growth chamber for a period of 72 hours. After this time, the seedlings were examined for dead insects. Insects were classified as dead if they were off-color or brown and desiccated. Upon completion of the evaluation of the test, the percent mortality of the cotton aphid for each rate of application of the candidate insecticide was determined by comparison of the total number of dead insects to the total number of insects in the test.

[3] = Aphis gossypii, foliar, 72 h, read-out: Percent Mortality
[4] = Aphis gossypii, cotton aphid, foliar spray, 300 ppm, 72 hours, read-out: Percent Mortality
[5] = Aphis gossypii, cotton aphid, foliar spray, 1000 ppm, 72 hours, read-out: Percent Mortality
[6] = cotton aphid, foliar spray, 300 ppm, 72 hours
[7] = cotton aphid, foliar spray, 1000 ppm, 72 hours

SMILES: Clc1nsnc1C1CN2CCC1CC2 (centres unmarked) [Compound 102, 3-chloro-4-quinuclidin-3-yl-1,2,5-thiadiazole]
Percent Control ([1]; 100 ppm): 13%
Percent Control ([1]; 300 ppm): 27%
mortality at 300 ppm [2, 3]: 8%
mortality at 1000 ppm [2, 3]: 33%

SMILES: CCCSc1nsnc1C1=CCCN(C)C1 [Compound 71]
Percent Control ([1]; 300 ppm): 20%

melting point: 47 to 49 °C
SMILES: Clc1nsnc1C1=CC=CN(Cc2ccccc2)C1 (as salt: salt) [Compound 162, 3-chloro-4-(1-benzylpyrid-3-yl)-1,2,5-thiadiazole]

SMILES: CN1CCC=C(c2cnsn2)C1 [Compound 4, 3-[1-methyl(1,2,5,6-tetrahydropyrid-3-yl)]-1,2,5-thiadiazole]
Percent Control ([1]; 10 ppm): 49%
Percent Control ([1]; 30 ppm): 96%
Percent Control ([1]; 100 ppm): 100%
Percent Control ([1]; 300 ppm): 100%
Percent Control ([1]; 1000 ppm): 100%
mortality at 100 ppm ([2]; Aphis gossypii, cotton aphid, foliar spray, 100 ppm, 72 hours, read-out: Percent Mortality): 24%
mortality at 300 ppm [2, 4]: 73%
mortality at 1000 ppm [2, 5]: 86%

SMILES: COc1nsnc1C1CN2CCC1CC2 (centres unmarked) [Compound 107]
Percent Mortality [2, 6]: 12%
Percent Mortality [2, 7]: 24%

SMILES: CN1CCC=C(c2nsnc2Oc2ccc(F)cc2)C1 [Compound 63]
Percent Mortality ([2]; cotton aphid, foliar spray, 1000 ppm, 72 hours, average of two tests): 48%

SMILES: CCCOc1nsnc1C1CN2CCC1CC2 (centres unmarked) [Compound 109]
Percent Control ([1]; 300 ppm): 15%
Percent Control ([1]; 1000 ppm): 65%

SMILES: Clc1nsnc1C1=CCCN(Cc2ccccc2)C1 [Compound 2, 3-chloro-4-[1-benzyl(1,2,5,6-tetrahydropyrid-3-yl)]-1,2,5-thiadiazole]
mortality at 1000 ppm ([2]; Aphis gossypii, cotton aphid, foliar spray, 1000 ppm, 72 hours, read-out: Percent Mortality (LP class)): > 0%

SMILES: CCCCSc1nsnc1C1=CCCN(C)C1 [Compound 72]
Percent Control ([1]; 300 ppm): 4%
Percent Control ([1]; 1000 ppm): 34%

SMILES: CCCCCCSc1nsnc1C1=CCCN(C)C1 [Compound 75]
Percent Mortality [2, 7]: 25%

SMILES: Cc1nsnc1-c1cccnc1 [Compound 132, 3-methyl-4-pyrid-3-yl-1,2,5-thiadiazole]
mortality at 300 ppm [2, 4]: 35%
mortality at 1000 ppm [2, 5]: 82%

SMILES: CCCCOc1nsnc1C1=CCCN(C)C1 [Compound 60]
Percent Control ([1]; 300 ppm): 10%
Percent Control ([1]; 1000 ppm): 41%
Percent Mortality (LP class) [2, 7]: LP (LP means that some activity was observed because the population of the cotton aphids was lowered but a value was not calculated.)

SMILES: C=CCSc1nsnc1C1=CCCN(C)C1 [Compound 77]
Percent Control ([1]; 300 ppm): 13%

SMILES: CN1CCC=C(c2nsnc2F)C1 [Compound 23, 3-fluoro-4-(1-methyl-1,2,5,6-tetrahydropyrid-3-yl)-1,2,5-thiadiazole]
Percent Control ([1]; 10 ppm): 35%
Percent Control ([1]; 30 ppm): 95%
Percent Control ([1]; 100 ppm): 98%
Percent Control ([1]; 300 ppm): 100%
mortality at 1000 ppm ([2]; Aphis gossypii, cotton aphid, foliar spray, 1000 ppm, 72 hours, average of two tests, read-out: Percent Mortality): 11%

melting point: 93 to 95 °C
SMILES: Clc1nsnc1C1(Cl)CN2CCC1CC2 (centres unmarked)

SMILES: C#CCCOc1nsnc1C1=CCCN(C)C1 [Compound 68]
Percent Mortality (LP class) [2, 7]: LP (LP means that some activity was observed because the population of the cotton aphids was lowered but a value was not calculated.)

SMILES: CCCOc1nsnc1C1=CC=CNC1 [Compound 140]
Percent Mortality (LP class) [2, 7]: LP (LP means that some activity was observed because the population of the cotton aphids was lowered but a value was not calculated.)

SMILES: C#CCOc1nsnc1C1=CCCN(C)C1 [Compound 66]
Percent Control ([1]; 100 ppm): 52%
Percent Control ([1]; 300 ppm): 83%
Percent Control ([1]; 1000 ppm): 98%

SMILES: CCOc1nsnc1C1CN2CCC1CC2 (centres unmarked) [Compound 108]
Percent Mortality [2, 6]: 3%
Percent Mortality [2, 7]: 17%

SMILES: Cc1nsc(C2=CCCN(C)C2)n1 [B, reference compound]
Percent Control ([1]; 300 ppm): completely inactive

SMILES: CC#CCOc1nsnc1C1=CCCN(C)C1 [Compound 67]
Percent Control ([1]; 300 ppm): 100%
Percent Control ([1]; 1000 ppm): 100%

SMILES: CCCCOc1nsnc1C1CN2CCC1CC2 (centres unmarked) [Compound 110, 3-butoxy-4-quinuclidin-3-yl-1,2,5-thiadiazole]
Percent Control ([1]; 300 ppm): 34%
mortality at 1000 ppm ([2]; Aphis gossypii, foliar, 72 h, read-out: Percent Mortality (LP class)): > 0%

SMILES: CN1CCC=C(c2ncns2)C1 [A, reference compound]
Percent Control ([1]; 300 ppm): completely inactive

SMILES: CCCCCSc1nsnc1C1=CCCN(C)C1 [Compound 73]
Percent Mortality (LP class) [2, 7]: LP (LP means that some activity was observed because the population of the cotton aphids was lowered but a value was not calculated.)

SMILES: CCOC(=O)N1CCC=C(c2nsnc2Cl)C1 [Compound 3]
Percent Mortality (LP class) [2, 7]: LP (LP means that some activity was observed because the population of the cotton aphids was lowered but a value was not calculated.)
